Values quoted from earlier work in US20040034086A1, “Combination of an allosteric inhibitor of matrix metalloproteinase-13 with celecoxib or valdecoxib” (priority 2002, published 2004).

## Cc1onc(-c2ccccc2)c1-c1ccc(S(N)(=O)=O)cc1 [valdecoxib, 4-(5-methyl-3-phenyl-4-isoxazolyl)-benzenesulfonamide]
Combined analysis of various clinical studies
  Tolerability in clinical studies: well tolerated
Compared with conventional NSAIDs such as ibuprofen, diclofenac and naproxen
  Overall upper gastrointestinal safety profile (ulcers, perforations, obstructions and GI bleeds): significantly better than the conventional NSAIDs studied
